Article PMC6156078, “Thalidomide promotes degradation of SALL4, a transcription factor implicated in Duane Radial Ray syndrome” (eLife, 2018)

How the values were obtained:
HNRNPH1 = experiment: TMT proteomics H9 hESC: HNRNPH1 abundance; format: cell-based, human; conditions: H9 hES cells, 5 h vs DMSO; lenalidomide 5 µM
Source text: (§1) We established a mass spectrometry-based workflow (Figure 1—figure supplement 1A) to detect IMiD-induced protein degradation in hESC.
(§2) Proteins were precipitated using methanol/chloroform.

[1] = typical dose 200–400 mg thalidomide, 25 mg lenalidomide, 2 mg pomalidomide, ref Chen et al., 2017, Hoffmann et al., 2013, Teo et al., 2004, cited from earlier work
OGDH = experiment: TMT proteomics MM1s cells: OGDH abundance; conditions: 5 h vs DMSO, lenalidomide 5 µM
HADHA = experiment: TMT proteomics MM1s cells: HADHA abundance; conditions: 5 h vs DMSO, lenalidomide 5 µM
[2] = tested on: IMiD-dependent neo-substrates; experiment: TMT proteomics profiling of IMiD-dependent neo-substrates (hESC, Kelly, SK-N-DZ, MM1s); format: cell-based, human; conditions: for number of substrates identified (rank order): H9 hESC proteomics; for proteins degraded upon treatment (besides SALL4): H9 hESC, 5 h, 5 µM lenalidomide, 1 µM pomalidomide; for substrates robustly degraded (each drug in addition to the preceding one): proteomics across hESC, MM1s, Kelly, SK-N-DZ cells
Source text: as §1, §2

DYNC1H1 = experiment: TMT proteomics Kelly cells: DYNC1H1 abundance; conditions: 5 h vs DMSO, lenalidomide 5 µM
ST14 = experiment: TMT proteomics MM1s cells: ST14 abundance; conditions: 5 h vs DMSO, lenalidomide 5 µM
PPA1 = experiment: TMT proteomics H9 hESC: PPA1 abundance; format: cell-based, human; conditions: H9 hES cells, 5 h vs DMSO; thalidomide 10 µM, lenalidomide 5 µM
Source text: as §1, §2

[3] = tested on: HIST1H4A; HIST1H4F; HIST1H4D; HIST1H4J; HIST2H4A; HIST2H4B; HIST1H4H; HIST1H4C; HIST4H4; HIST1H4E; HIST1H4I; HIST1H4B; HIST1H4K; HIST1H4L; experiment: Rescue proteomics SK-N-DZ cells: histone H4 abundance; conditions: 1 µM pomalidomide, 5 h vs DMSO, rescue experiment (source data 13)
SALL4 [4] = experiment: Western blot of SALL4 in CRBN-/- Kelly and HEK293T cells; format: cell-based, human; conditions: increasing concentrations, 24 h
SALL4 [5] = target: T1, SALL4 (Homo sapiens, UniProt Q9UJQ4); conditions: Kelly cells
SALL4 [6] = target: T1, SALL4; experiment: TMT proteomics H9 hESC: SALL4 abundance; format: cell-based; conditions: H9 hES cells, 5 h vs DMSO; thalidomide 10 µM, lenalidomide 5 µM, pomalidomide 1 µM
Source text: as §1, §2

FAM83F = FAM83F (Homo sapiens, UniProt Q8NEG4); experiment: TMT proteomics H9 hESC: FAM83F abundance; format: cell-based; conditions: H9 hES cells, 5 h vs DMSO; thalidomide 10 µM, lenalidomide 5 µM, pomalidomide 1 µM
Source text: as §1, §2

SQRDL; SQOR = experiment: TMT proteomics MM1s cells: SQRDL abundance; conditions: 5 h vs DMSO, pomalidomide 1 µM
RAB28 [7] = target: T2, RAB28 (Homo sapiens, UniProt P51157); experiment: TMT proteomics SK-N-DZ cells: RAB28 abundance; conditions: 5 h vs DMSO, pomalidomide 1 µM, lenalidomide 5 µM, CC-220 0.1 µM, dBET57 1 µM
ZFP91 [8] = target: T3, ZFP91 (Homo sapiens, UniProt Q96JP5+Q96SW2); experiment: TMT proteomics MM1s cells: ZFP91 abundance; conditions: 5 h vs DMSO, thalidomide 10 µM, lenalidomide 5 µM, pomalidomide 1 µM
RTN4 = experiment: Rescue proteomics SK-N-DZ cells: RTN4 abundance; conditions: 1 µM pomalidomide, 5 h vs DMSO, rescue experiment (source data 13)
DTWD1 = DTWD1 (Homo sapiens, UniProt Q8N5C7+Q96SW2); experiment: TMT proteomics H9 hESC: DTWD1 abundance; format: cell-based; conditions: H9 hES cells, 5 h vs DMSO; thalidomide 10 µM, lenalidomide 5 µM, pomalidomide 1 µM
Source text: as §1, §2

COX5A = experiment: TMT proteomics Kelly cells: COX5A abundance; conditions: 5 h vs DMSO, pomalidomide 1 µM
ZFP91 [9] = target: T3, ZFP91; experiment: TMT proteomics Kelly cells: ZFP91 abundance; conditions: 5 h vs DMSO, thalidomide 10 µM, lenalidomide 5 µM, pomalidomide 1 µM
CLIC4 = experiment: TMT proteomics Kelly cells: CLIC4 abundance; conditions: 5 h vs DMSO, pomalidomide 1 µM
[10] = target: hsSALL4ZnF2 / DDB1∆B-CRBN (Homo sapiens, UniProt Q96SW2+Q9UJQ4); experiment: TR-FRET IMiD-dependent binding of SALL4ZnF2 to CRBN; conditions: DDB1∆B-CRBN 200 nM, hsSALL4ZnF2 100 nM
Source text: The TR-FRET signal of each data point was extracted by calculating the 520/490 nm ratios.

SALL4 [11] = target: T1, SALL4; experiment: Western blot of SALL4 in Kelly, SK-N-DZ, HEK293T and H661 cells; conditions: increasing concentrations, 24 h
ZBTB39 [12] = target: T4, ZBTB39 (Homo sapiens, UniProt O15060+Q96SW2); experiment: TMT proteomics SK-N-DZ cells: ZBTB39 abundance; conditions: 5 h vs DMSO, pomalidomide 1 µM, lenalidomide 5 µM, CC-220 0.1 µM, dBET57 1 µM
IKZF3 = IKZF3 (Homo sapiens, UniProt Q96SW2+Q9UKT9); experiment: TMT proteomics MM1s cells: IKZF3 abundance; conditions: 5 h vs DMSO, thalidomide 10 µM, lenalidomide 5 µM, pomalidomide 1 µM
TLN2 = experiment: Rescue proteomics SK-N-DZ cells: TLN2 abundance; conditions: 1 µM pomalidomide, 5 h vs DMSO, rescue experiment (source data 13)
IKZF1 = IKZF1 (Homo sapiens, UniProt Q13422+Q96SW2); experiment: TMT proteomics MM1s cells: IKZF1 abundance; conditions: 5 h vs DMSO, thalidomide 10 µM, lenalidomide 5 µM, pomalidomide 1 µM
ARPP19 = experiment: TMT proteomics Kelly cells: ARPP19 abundance; conditions: 5 h vs DMSO, pomalidomide 1 µM
GZF1 = GZF1 (Homo sapiens, UniProt Q96SW2+Q9H116); experiment: TMT proteomics SK-N-DZ cells: GZF1 abundance; conditions: 5 h vs DMSO, pomalidomide 1 µM, lenalidomide 5 µM, CC-220 0.1 µM, dBET57 1 µM
SALL4 [13] = target: T1, SALL4; experiment: TMT proteomics Kelly cells: SALL4 abundance; conditions: 5 h vs DMSO, thalidomide 10 µM, lenalidomide 5 µM, pomalidomide 1 µM
RAB28 [14] = target: T2, RAB28; experiment: TMT proteomics MM1s cells: RAB28 abundance; conditions: 5 h vs DMSO, thalidomide 10 µM, lenalidomide 5 µM, pomalidomide 1 µM
ILF3 = experiment: Rescue proteomics SK-N-DZ cells: ILF3 abundance; conditions: 1 µM pomalidomide, 5 h vs DMSO, rescue experiment (source data 13)
GAP43 = experiment: Rescue proteomics SK-N-DZ cells: GAP43 abundance; conditions: 1 µM pomalidomide, 5 h vs DMSO, rescue experiment (source data 13)
SALL4 [15] = target: T1, SALL4; experiment: Western blot of SALL4 in H9 hESC; format: cell-based; set-up: endogenous in cells; host or cells: Kelly, H9 hESC, SK-N-DZ cells; conditions: increasing doses, 24 h
VRTN = target: T5, VRTN (Homo sapiens, UniProt Q9H8Y1); experiment: TMT proteomics H9 hESC: VRTN abundance; format: cell-based; conditions: H9 hES cells, 5 h vs DMSO; thalidomide 10 µM, pomalidomide 1 µM
T5 construct: endogenous in cells; host or cells: H9 hESC
T5 sequence (Q9H8Y1 whole entry): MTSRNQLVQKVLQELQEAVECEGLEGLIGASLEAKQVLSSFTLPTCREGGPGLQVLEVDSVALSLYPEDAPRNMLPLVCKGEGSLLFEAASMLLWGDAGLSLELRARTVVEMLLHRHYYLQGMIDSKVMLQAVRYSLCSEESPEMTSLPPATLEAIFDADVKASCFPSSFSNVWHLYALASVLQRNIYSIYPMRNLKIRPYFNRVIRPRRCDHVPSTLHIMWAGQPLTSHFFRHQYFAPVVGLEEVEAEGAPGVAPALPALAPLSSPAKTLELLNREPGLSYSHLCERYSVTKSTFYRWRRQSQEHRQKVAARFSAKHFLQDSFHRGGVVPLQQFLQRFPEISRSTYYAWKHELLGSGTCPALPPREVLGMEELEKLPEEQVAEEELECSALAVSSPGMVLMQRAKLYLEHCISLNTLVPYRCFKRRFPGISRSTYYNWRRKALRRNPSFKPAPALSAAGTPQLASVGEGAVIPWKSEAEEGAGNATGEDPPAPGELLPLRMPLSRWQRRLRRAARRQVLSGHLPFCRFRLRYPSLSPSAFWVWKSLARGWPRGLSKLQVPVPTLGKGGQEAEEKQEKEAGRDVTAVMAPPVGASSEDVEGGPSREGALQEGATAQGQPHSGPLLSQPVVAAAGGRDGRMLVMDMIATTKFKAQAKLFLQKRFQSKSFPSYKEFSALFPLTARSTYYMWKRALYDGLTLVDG
Source text: as §1, §2

ZFP91 [16] = target: T3, ZFP91; experiment: TMT proteomics SK-N-DZ cells: ZFP91 abundance; conditions: 5 h vs DMSO, pomalidomide 1 µM, lenalidomide 5 µM, CC-220 0.1 µM, dBET57 1 µM
ZNF98 = ZNF98 (Homo sapiens, UniProt A6NK75+Q96SW2); experiment: TMT proteomics SK-N-DZ cells: ZNF98 abundance; conditions: 5 h vs DMSO, pomalidomide 1 µM, lenalidomide 5 µM, CC-220 0.1 µM, dBET57 1 µM
ZBTB39 [17] = target: T4, ZBTB39; experiment: TMT proteomics H9 hESC: ZBTB39 abundance; format: cell-based; conditions: H9 hES cells, 5 h vs DMSO; thalidomide 10 µM, lenalidomide 5 µM, pomalidomide 1 µM
Source text: as §1, §2

mmSALL4 = target: T6, mmSALL4 (Mus musculus, UniProt Q8BX22); experiment: Western blot of mmSALL4 in mouse embryonic stem cells; format: cell-based; conditions: increasing concentrations, 24 h
T6 construct: endogenous in cells; host or cells: TC1 mouse embryonic stem cells
T6 sequence (Q8BX22 whole entry): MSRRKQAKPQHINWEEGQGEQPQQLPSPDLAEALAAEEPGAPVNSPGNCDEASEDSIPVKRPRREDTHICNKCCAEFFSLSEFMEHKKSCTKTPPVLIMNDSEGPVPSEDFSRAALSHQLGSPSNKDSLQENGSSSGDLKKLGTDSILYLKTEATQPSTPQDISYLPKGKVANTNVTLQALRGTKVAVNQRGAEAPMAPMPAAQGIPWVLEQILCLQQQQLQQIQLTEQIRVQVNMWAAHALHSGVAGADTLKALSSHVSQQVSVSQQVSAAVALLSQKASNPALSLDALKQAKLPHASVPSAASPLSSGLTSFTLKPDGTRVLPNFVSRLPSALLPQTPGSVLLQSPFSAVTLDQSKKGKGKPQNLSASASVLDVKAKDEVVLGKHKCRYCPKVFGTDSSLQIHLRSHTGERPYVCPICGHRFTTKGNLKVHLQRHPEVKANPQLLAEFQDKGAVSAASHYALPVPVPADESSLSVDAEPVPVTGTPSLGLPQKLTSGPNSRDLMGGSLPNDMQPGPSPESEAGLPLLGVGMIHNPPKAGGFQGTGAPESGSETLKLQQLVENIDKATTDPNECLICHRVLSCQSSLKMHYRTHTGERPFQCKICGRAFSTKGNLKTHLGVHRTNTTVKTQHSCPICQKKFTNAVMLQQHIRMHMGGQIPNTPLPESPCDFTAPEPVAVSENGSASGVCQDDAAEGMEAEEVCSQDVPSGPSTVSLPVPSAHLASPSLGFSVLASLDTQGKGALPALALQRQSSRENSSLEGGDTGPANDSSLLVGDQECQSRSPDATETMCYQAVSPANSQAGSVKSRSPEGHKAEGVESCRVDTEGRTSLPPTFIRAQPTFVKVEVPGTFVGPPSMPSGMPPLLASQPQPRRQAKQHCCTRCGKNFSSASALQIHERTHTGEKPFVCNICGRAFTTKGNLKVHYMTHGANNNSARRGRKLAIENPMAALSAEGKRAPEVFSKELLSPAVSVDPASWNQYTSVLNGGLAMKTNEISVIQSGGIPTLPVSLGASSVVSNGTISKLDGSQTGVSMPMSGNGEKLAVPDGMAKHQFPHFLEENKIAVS

SMILES: Nc1cccc2c1CN(C1CCC(=O)NC1=O)C2=O (centres unmarked) [lenalidomide]
- logFC HNRNPH1 (HNRNPH1): 0.1553
- plasma half-life (t1/2) [1]: ~ 3 h
- logFC OGDH (OGDH): 0.1359
- logFC HADHA (HADHA): 0.1826
- number of substrates identified (rank order) [2]: Thal < Len << Pom
- proteins degraded upon treatment (besides SALL4) [2]: CSNK1A1
- substrates robustly degraded (each drug in addition to the preceding one) [2]: ZNF827, FAM83F, and RAB28 along with the lenalidomide-specific substrate CSNK1A1
- logFC DYNC1H1 (DYNC1H1): 0.04048
- logFC ST14 (ST14): -0.1872
- logFC PPA1 (PPA1): -0.1919

SMILES: Nc1cccc2c1C(=O)N(C1CCC(=O)NC1=O)C2=O (centres unmarked) [pomalidomide]
- plasma half-life (t1/2) [1]: ~ 9 h
- Cmax ([1]; read-out: maximum plasma concentration (Cmax)): 50 nM
- logFC HIST1H4A (histone H4 genes) [3]: -0.1522
- SALL4 degradation in CRBN-/- cells (SALL4 [4]): no degradation of SALL4 was observed
- earliest time of SALL4 degradation post treatment (SALL4 [5]; 1 or 5 µM pomalidomide): 4 h
- time post washout at which SALL4 recovered to levels close to pre-treatment (SALL4 [5]; pomalidomide 8 h then washout): 48 h
- logFC SALL4 (SALL4 [6]): -1.645
- logFC FAM83F (FAM83F): -1.309
- logFC SQRDL; SQOR (SQRDL; SQOR): 0.2873
- logFC RAB28 (RAB28 [7]): -1.455
- logFC ZFP91 (ZFP91 [8]): -1.964
- logFC RTN4 (RTN4): -0.1703
- logFC DTWD1 (DTWD1): -1.822
- logFC COX5A (COX5A): 0.352
- logFC ZFP91 (ZFP91 [9]): -0.9865
- logFC CLIC4 (CLIC4): -0.176
- rank order in binding observed with ZnF2 [10]: Pom >Thal >> Len
- SALL4 protein levels (western blot) (SALL4 [11]): dose-dependent decrease in SALL4 protein levels
- logFC ZBTB39 (ZBTB39 [12]): -1.448
- logFC IKZF3 (IKZF3): -2.635
- logFC TLN2 (TLN2): -0.06109
- logFC IKZF1 (IKZF1): -2.094
- logFC ARPP19 (ARPP19): 0.611
- number of substrates identified (rank order) [2]: Thal < Len << Pom
- proteins degraded upon treatment (besides SALL4) [2]: ZFP91 ([An et al., 2017]) and the largely uncharacterized proteins ZBTB39, FAM83F, WIZ, RAB28, and DTWD1
- substrates robustly degraded (each drug in addition to the preceding one) [2]: ZBTB39, ZFP91, DTWD1, and ZNF653
- logFC GZF1 (GZF1): -0.5859
- logFC SALL4 (SALL4 [13]): -1.873
- logFC RAB28 (RAB28 [14]): -1.819
- logFC ILF3 (ILF3): -0.0757
- logFC GAP43 (GAP43): -0.1693
- SALL4 protein levels (western blot) (SALL4 [15]): dose-dependent decrease in protein levels
- logFC VRTN (VRTN): -0.4677
- logFC ZFP91 (ZFP91 [16]): -1.944
- logFC ZNF98 (ZNF98): -1.487
- logFC ZBTB39 (ZBTB39 [17]): -1.656
- degradation of mmSALL4 in mESC (mmSALL4): does not promote degradation of mmSALL4
